# Test results: PMC7366380, “Discovery of a Potent and Selective Covalent Inhibitor and Activity-Based Probe for the Deubiquitylating Enzyme UCHL1, with Antifibrotic Activity” (Journal of the American Chemical Society, 2020)
# How the values were obtained:
# [1] = FMT assay, cell number (DAPI nuclei count); conditions: human
# [2] = system: primary human bronchial fibroblasts from IPF patients (TGF-β1-triggered αSMA); experiment: Fibroblast-to-myofibroblast transition (FMT) assay, αSMA by high content analysis
smiles,measurement,setting,value
"COC(=O)c1ccc2c(c1)NC(=O)/C2=C(\Nc1ccc(N(C)C(=O)CN2CCN(C)CC2)cc1)c1ccccc1 [nintedanib, reference compound]",EC50 at 3 days,[1],~18 µM
same,IC50,"[2]; Homo sapiens, Fibroblast, 72 h, read-out: αSMA inhibition IC50 (95% CI)",280 nM
same,αSMA inhibition / transdifferentiation (in words),"[2]; IPF donor fibroblasts, TGF-β1, 3 days, high content imaging",inhibit transdifferentiation
